Measured values from ChEMBL document CHEMBL1134882, “Preparation of chiral 4-benzyloxymethyldihydrofuran-2-one using lipase-catalyzed kinetic resolution: synthesis of (-)-virginiae butanolide C (VB C)” (Bioorg Med Chem Lett, 2002).
“And” between values parts separate entries of the source, which are not always exact repeats. Identical values can stand only once.

How the values were obtained:
Burkholderia cepacia [1] = experiment: Kinetic resolution by Lipase PS from Pseudomonas cepacia, catalyzed acylation by using Phenyl acetate
Burkholderia cepacia [2] = experiment: Kinetic resolution by Lipase PS from Pseudomonas cepacia, catalyzed acylation by using Succinic anhydride
Burkholderia cepacia [3] = experiment: Kinetic resolution by Lipase PS from Pseudomonas cepacia, catalyzed acylation by using Isopropenyl acetate
Burkholderia cepacia [4] = experiment: Kinetic resolution by Lipase PS from Pseudomonas cepacia, catalyzed acylation by using Vinyl acetate

Row | Structure (SMILES) | TIME (Burkholderia cepacia [1]) | TIME (Burkholderia cepacia [2]) [h] | TIME (Burkholderia cepacia [3]) [h] | TIME (Burkholderia cepacia [4]) [h]
1 | O=C(C[C@@H](CO)COCc1ccccc1)NCc1ccccc1 | 10 h | – | – | –
2 | CN(C)C(=O)C[C@H](CO)COCc1ccccc1 | 2 h | 8 | – | –
3 | CCNC(=O)C[C@@H](CO)COCc1ccccc1 | 1 h | 5 | – | –
4 | CNC(=O)C[C@@H](CO)COCc1ccccc1 | 12 h | – | – | –
5 | CCN(CC)C(=O)C[C@H](CO)COCc1ccccc1 | 3 h and 2 h | 4 | 9 | 2
